# According to article doi:10.1101/416081v1 (biorxiv, 2018):
# Target: T1, reTAPON1-LIKE (Trichoderma atroviride, UniProt A0A4D6GQM1)
# T1 construct: 30-aa signal peptide removed (438-residue ORF, 1317 bp), N-terminal GST tag kept (pGEX-4T-1), E. coli Origami B (DE3), about 71 kDa fusion
# Assay type: biochemical
# Conditions: 25 °C
row,Compound,Km
1,CCOP(=O)(OCC)Oc1nc(Cl)c(Cl)cc1Cl [Chlorpyrifos-oxon],320 ± 50 µM
2,"COP(=O)(OC)OC=C(Cl)Cl [Dichlorvos, 2,2-dichlorovinyl dimethyl phosphate]",230 ± 20 µM
3,CCOC(=O)CC(SP(=O)(OC)OC)C(=O)OCC (centres unmarked) [Malaoxon],720 ± 10 µM
4,COC(=O)C=C(C)OP(=O)(OC)OC [Mevinphos],440 ± 40 µM
5,CNC(=O)CSP(=O)(OC)OC [Omethoate],790 ± 120 µM
